Structures can show the parent of a compound that is named as a salt.
Target: T1, human NCX1 (Homo sapiens, UniProt P32418)
T1 construct: expressed in transfected cells
Experiment: Inhibition of Ca2+ influx into cells (NCX1 reverse mode), FLIPR Fluo-4 assay
Format: cell-based
Conditions: inhibition of NCX1 in reverse mode (Ca2+ influx into cells); read-out: NCX1rv IC50
Procedure, shortened: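 Ca2+ influx via reverse-mode exchange was evoked with gramicidin (20 µM final) after 45 min compound exposure at 16 °C in stably transfected CHO cells. Fluo-4 signal (520 nm) was followed on FLIPR at 2 s intervals. Max–min fluorescence gave percentage inhibition, from which IC50 was calculated.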

Cc1c(F)cccc1C1CCc2cc(OC3CCC(C(=O)NCCO)CC3)ccc2O1 (stereo not shown) [compound 262]
IC50: 200 nM

Cc1c(F)cccc1C1CCc2cc(OC3CCC(C(=O)NCc4ccno4)CC3)ccc2O1 (stereo not shown) [compound 263]
IC50: 100 nM

Cc1ccccc1C1CCc2cc(OC3CCC(C(=O)NC(CO)CO)CC3)ccc2O1 (stereo not shown) [compound 264]
IC50: 200 nM

Cc1c(F)cccc1C1CCc2cc(OC3CCC(C(=O)NCC(N)=O)CC3)ccc2O1 (stereo not shown) [compound 272]
IC50: 400 nM

Cc1c(F)cccc1C1CCc2cc(OC3CCC(C(=O)NCC(=O)N(C)C)CC3)ccc2O1 (stereo not shown) [compound 273]
IC50: 600 nM

Cc1c(F)cccc1C1CCc2cc(OC3CCC(C(=O)NCCS(=O)(=O)N(C)C)CC3)ccc2O1 (stereo not shown) [compound 274]
IC50: 600 nM

CNS(=O)(=O)CCNC(=O)C1CCC(Oc2ccc3c(c2)CCC(c2cccc(F)c2C)O3)CC1 (stereo not shown) [compound 275]
IC50: 400 nM

Cc1c(F)cccc1C1CCc2cc(OC3CCC(C(=O)NCC(C)O)CC3)ccc2O1 (stereo not shown) [compound 276]
IC50: 600 nM

Cc1c(F)cccc1C1CCc2cc(OC3CCC(C(=O)NCCNS(C)(=O)=O)CC3)ccc2O1 (stereo not shown) [compound 277]
IC50: 300 nM

CNC(=O)CNC(=O)C1CCC(Oc2ccc3c(c2)CCC(c2cccc(F)c2C)O3)CC1 (stereo not shown) [compound 281]
IC50: 500 nM

CSC(C)CCNC(=O)C1CCC(Oc2ccc3c(c2)CCC(c2cccc(F)c2C)O3)CC1 (stereo not shown) [compound 282]
IC50: 400 nM

CCn1nccc1CNC(=O)C1CCC(Oc2ccc3c(c2)CCC(c2cccc(F)c2C)O3)CC1 (stereo not shown) [compound 283]
IC50: 600 nM

Cc1c(F)cccc1C1CCc2cc(OC3CCC(C(=O)NC[C@@H]4CCCC[C@H]4O)CC3)ccc2O1 (stereo partly shown) [compound 284]
IC50: 800 nM

Cc1cc2c(cc1OC1CCC(C(=O)NCCO)CC1)CCC(c1ccccc1C)O2 (stereo not shown) [compound 288]
IC50: 1900 nM

Cc1cc2c(cc1OC1CCC(C(=O)NCc3ccno3)CC1)CCC(c1ccccc1C)O2 (stereo not shown) [compound 289]
IC50: 1300 nM

CCn1nccc1CNC(=O)C1CCC(Oc2cc3c(cc2C)OC(c2ccccc2C)CC3)CC1 (stereo not shown) [compound 290]
IC50: 1500 nM

O=C(NCCO)C1CCC(Oc2ccc3c(c2Cl)CCC(c2ccccc2)O3)CC1 (stereo not shown) [compound 291]
IC50: 1100 nM

O=C(NCc1ccno1)C1CCC(Oc2ccc3c(c2Cl)CCC(c2ccccc2)O3)CC1 (stereo not shown) [compound 292]
IC50: 1900 nM

CCn1nccc1CNC(=O)C1CCC(Oc2ccc3c(c2Cl)CCC(c2ccccc2)O3)CC1 (stereo not shown) [compound 293]
IC50: 4700 nM

COc1cccc(C2CCc3cc(OC4CCC(C(=O)NCCO)CC4)ccc3O2)c1F (stereo not shown) [compound 294]
IC50: 1300 nM

COc1cccc(C2CCc3cc(OC4CCC(C(=O)NCc5ccno5)CC4)ccc3O2)c1F (stereo not shown) [compound 295]
IC50: 1100 nM

CCn1nccc1CNC(=O)C1CCC(Oc2ccc3c(c2)CCC(c2cccc(OC)c2F)O3)CC1 (stereo not shown) [compound 296]
IC50: 900 nM

CCn1nccc1CNC(=O)C1CCC(Oc2ccc3c(c2)CC(C)C(c2ccccc2)O3)CC1 (stereo not shown) [compound 297]
IC50: 500 nM

CC1Cc2cc(OC3CCC(C(=O)NCc4ccno4)CC3)ccc2OC1c1ccccc1 (stereo not shown) [compound 298]
IC50: 1400 nM

CC1Cc2cc(OC3CCC(C(=O)NCCO)CC3)ccc2OC1c1ccccc1 (stereo not shown) [compound 299]
IC50: 1900 nM

CCn1nccc1CNC(=O)C1CCC(Oc2ccc3c(c2)CCC(c2cccc(F)c2OC)O3)CC1 (stereo not shown) [compound 300]
IC50: 400 nM

COc1c(F)cccc1C1CCc2cc(OC3CCC(C(=O)NCc4ccno4)CC3)ccc2O1 (stereo not shown) [compound 301]
IC50: 200 nM

COc1c(F)cccc1C1CCc2cc(OC3CCC(C(=O)NCCO)CC3)ccc2O1 (stereo not shown) [compound 302]
IC50: 400 nM

N[C@@H]1CC[C@@H](Oc2ccc3c(c2)CCC(c2ccccc2)O3)C1 (stereo partly shown) [compound 304, hydrochloride]
IC50: 600 nM

NCC1CCC(Oc2ccc3c(c2)CCC(c2ccccc2)O3)C1 (stereo not shown) [compound 305, hydrochloride]
IC50: 1500 nM

N-(1,3-Dimethylbutyl)-4-(2-phenylchroman-6-yloxy)-cyclohexylamine [compound 141]
IC50: 1000 nM
